The source of these data is patent US20240279190A1, “COMPOUNDS FOR MODULATING PLATELET-TYPE 12-(S)-LIPOXYGENASE AND METHODS OF USE FOR SAME” (The Regents of The University of California, priority 2021, published 2024).

Experiment [1] deals with T1, 12-LOX mutant F352L (Homo sapiens, UniProt P18054, F352L).
T1 construct: 6xHis (N); made in house; pFastBac1 shuttle vector
T1 sequence (P18054 1-663 F352L): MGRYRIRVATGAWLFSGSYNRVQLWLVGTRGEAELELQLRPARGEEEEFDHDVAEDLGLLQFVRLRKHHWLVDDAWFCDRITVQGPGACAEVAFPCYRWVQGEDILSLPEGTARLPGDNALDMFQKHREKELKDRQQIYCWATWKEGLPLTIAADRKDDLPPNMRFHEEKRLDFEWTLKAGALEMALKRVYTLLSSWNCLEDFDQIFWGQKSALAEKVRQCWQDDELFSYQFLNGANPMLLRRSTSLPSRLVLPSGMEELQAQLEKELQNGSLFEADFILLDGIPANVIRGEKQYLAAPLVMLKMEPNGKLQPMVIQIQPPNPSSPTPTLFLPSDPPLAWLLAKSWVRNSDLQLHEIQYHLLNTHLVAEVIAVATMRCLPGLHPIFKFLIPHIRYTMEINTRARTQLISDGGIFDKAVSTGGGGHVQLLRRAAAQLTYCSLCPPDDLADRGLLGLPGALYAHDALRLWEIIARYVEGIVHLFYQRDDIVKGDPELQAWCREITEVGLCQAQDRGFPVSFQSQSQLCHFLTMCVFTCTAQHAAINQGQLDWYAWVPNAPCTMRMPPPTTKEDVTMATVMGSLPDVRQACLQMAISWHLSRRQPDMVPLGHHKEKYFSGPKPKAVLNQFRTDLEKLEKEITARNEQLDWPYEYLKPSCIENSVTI
Kind of experiment: UV-Vis-based IC50 assay, F352L mutant. Format: biochemical. The text has this: (§1) Based on the ML355 binding mode predicted by the modeling, all residues within 5 Å of any atom of ML355 were selected for experimental mutagenesis. The selected residues were replaced with amino acids with either bulkier or smaller side chains in order to determine what specific interactions play a role in inhibitor binding. […] The numbering refers to the UniProt accession number P18054 sequence, with the N-terminal methionine assigned as amino acid number one. The primers for all mutants were designed using the online QuikChange Primer Design tool (http://www.genomics.agilent.com/primerDesignProgram.jsp) from Agilent Technologies (CA, USA). The mutations were introduced by using the QuikChange® II XL site-directed mutagenesis kit from Agilent, following the instructions in the protocol provided. […]
(§2) The wild type 12-LOX (wt-12-LOX) enzyme and its mutants were expressed as fusion proteins, with an N-terminal 6×His tag, and were affinity purified by nickel-iminodiacetic acid agarose using FPLC (Biorad).
(§3) The percent inhibition was determined by comparing the enzyme rates of the control (DMSO solvent) and the inhibitor sample by following the formation of the conjugated diene product at 234 nm (ε=25,000 M^−1cm^−1). […] The substrate concentration was quantitatively determined by allowing the enzymatic reaction to go to completion in the presence of soybean LOX-1. […]

Experiment [2] concerns the target T2, 12-LOX mutant A417I/V418M (Homo sapiens, UniProt P18054, A417I/V418M).
T2 construct: 6xHis (N); made in house; pFastBac1 shuttle vector
T2 sequence (P18054 1-663 A417I/V418M): T1 sequence (P18054 1-663 F352L) with L352F, A417I, V418M
As to the kind of experiment: UV-Vis-based IC50 assay, A417I/V418M mutant. In kind it is biochemical.
From the text: as §1, §2, §3

Positions count from the first letter of the chain named.

In general, IC50 refers to the concentration that inhibits the measured activity by half. A high value points to lower potency. In the case of `COc1cccc(CNc2ccc(S(=O)(=O)Nc3nc4c(ccc5ccccc54)s3)cc2)c1O` [Compound LOX-12-001, 4-((2-hydroxy-3-methoxybenzyl)amino)-N-(naphtho[1,2-d]thiazol-2-yl)benzenesulfonamide], the IC50 in experiment [1] (F352L) was determined as 0.49 ± 0.05 µM; in experiment [2] (A417I/V418M), 0.12 ± 0.04 µM. The “fold increase in IC50 compared to wt12-LOX” value in experiment [1] (F352L vs wt12-LOX) was found to be 9.8 fold. Also, the “fold decrease in potency (increase in IC50) compared to wt12-LOX” value in experiment [2] (A417I/V418M vs wt12-LOX) was 2.4 fold.
